From patent US11020457B2, “Compositions and methods for protecting the kidney from ischemia reperfusion injury” (University of Virginia Patent Foundation, priority 2013, dated 2021) come the findings set out here.

“Also recorded” adds a separate entry of the source.

Test [1] deals with C57BL/6 mice. Description: Renal IRI in WT mice: 4-HNE immunohistochemistry (oxidative stress). In kind it is in vivo. To be noted: hepcidin-treated vs untreated IRI mice, FIG. 4a. The procedure:
(§1) All experiments were performed in accordance with the National Institutes of Health and Institutional Animal Care and Use Guidelines. The Animal Care and Use Committee of the University of Virginia approved all procedures and protocols. C57BL/6 mice from the Jackson Laboratory and hepcidin knockout mice (HAMP−/−), a kind gift from Dr Cindy Roy (John Hopkins University) were used in this study. All experiments were performed on 8-10 weeks old male mice. Kidney ischemia-reperfusion surgery was performed as previously reported (44). The core temperature of the mice was maintained between 34° C. and 36° C. using a heating pad. After anesthetizing the mice (ketamine, 12 mg/ml; atropine, 0.48 mg/ml; xylazine, 24 mg/ml; […] mixture administered per 20 g body weight), bilateral flank incisions were made, both renal pedicles were exposed, and cross-clamped for 26 minutes (severe I/R injury) or 24 minutes (mild I/R injury). After the determined ischemia, clamps were removed, and kidneys were allowed to reperfuse for 24 hours. Ambient postoperative air temperature was maintained between 30° C. and 32° C. until mice had fully recovered. […]
Kidney sections were embedded in paraffin, 3 μm sectioned, and stained for 4 Hydroxynonenal (4-HNE) using standard protocols. […] Sections were washed 3 times in NaPO4 buffer, and then incubated in ABC ready-to-use reagent (Vector Labs) for 30 minutes. […]

Test [2] relates to folic acid induced acute kidney injury. Description: Folic acid induced acute kidney injury (data not shown). In kind it is in vivo.
Test [3] concerns C57BL/6 mice. Description: Renal IRI in WT mice: IL-6 levels by ELISA. In kind it is in vivo. How it is done: as §1, with “recovered. Sham-operated animals underwent bilateral flank incisions without clamping of renal pedicles.” for “recovered.”
Serum iron (Abcam), hepcidin (Intrinsic Lifescience) and IL-6 levels (eBioscience) were measured using commercial ELISA kits, as per manufacturers instructions.
In general terms: In an ELISA, binding on a coated surface is turned into a signal by an enzyme label.

The test system of test [4] is hepcidin knockout mice (HAMP−/−). Description: Mild renal IRI in HAMP-/- mice: kidney H-Ferritin and apoptosis (Caspase-3, Bcl-2, TUNEL). In kind it is in vivo. To be noted: for kidney Caspase-3 expression: HAMP-/- IRI Vs HAMP-/- Hepcidin-IRI, p<0.007, FIG. 7c; for TUNEL-positive cells in the kidney: hepcidin treated HAMP-/- IRI vs HAMP-/- IRI, FIG. 7g; for kidney H-Ferritin levels: hepcidin treated HAMP-/- IRI vs untreated p<0.05, lower than sham p<0.005, FIG. 7a-b. How it is done:
All experiments were performed in accordance with the National Institutes of Health and Institutional Animal Care and Use Guidelines. The Animal Care and Use Committee of the University of Virginia approved all procedures and protocols. C57BL/6 mice from the Jackson Laboratory and hepcidin knockout mice (HAMP−/−), a kind gift from Dr Cindy Roy (John Hopkins University) were used in this study. All experiments were performed on 8-10 weeks old male mice. Kidney ischemia-reperfusion surgery was performed as previously reported (44). The core temperature of the mice was maintained between 34° C. and 36° C. using a heating pad. After anesthetizing the mice (ketamine, 12 mg/ml; atropine, 0.48 mg/ml; xylazine, 24 mg/ml; […] mixture administered per 20 g body weight), bilateral flank incisions were made, both renal pedicles were exposed, and cross-clamped for 26 minutes (severe I/R injury) or 24 minutes (mild I/R injury). After the determined ischemia, clamps were removed, and kidneys were allowed to reperfuse for 24 hours. Ambient postoperative air temperature was maintained between 30° C. and 32° C. until mice had fully recovered. Sham-operated animals underwent bilateral flank incisions without clamping of renal pedicles. Twenty-four hours later, mice were euthanized, and tissues were harvested.
Apoptotic cells in the kidney were detected by TUNEL assay following the manufacturer's protocol (Roche Diagnostics, Mannheim, Germany). Briefly, PLP-fixed kidney sections were immersed in 3% hydrogen peroxide-methanol (10 minutes) and permeabilized with cold 0.1% Triton-X100 and 0.1% […] (2 minutes). DNA fragments in apoptotic cells were then labeled and identified by terminal transferase dUTP conjugated to fluorescein (Roche Diagnostics) for 60 minutes at room temperature in dark. The apoptotic cells were imaged using a Zeiss Axiovert 200 microscope with Apo Tome (Zeiss).
Snap frozen tissue sections were homogenized in Tris-Triton tissue lysis buffer containing complete protease inhibitor cocktail using a Dounce Homogenizer. Membrane fractions were isolated from the whole kidney lysate using membrane isolation kit (Thermo Pierce) to determine ferroportin expression. H-Ferritin was measured in the whole kidney and spleen lysates. Protein content in the homogenate was estimated using the BCA protein estimation kit. Twenty to thirty microgram of protein per sample were loaded on a 10% NuPage Bis-Tris gel under reducing conditions. The resolved proteins were transferred onto a Nitrocellulose membrane (Licor Bioscience) and probed with goat anti-mouse H-Ferritin (Santa Cruz) and rabbit anti-mouse ferroportin (Novus Biologics) antibodies. The primary antibodies were detected with Donkey anti-goat Alexa 800 and goat anti-rabbit Alexa 800 antibodies (LiCor Bioscience). Mouse monoclonal GAPDH and β-Actin (Abcam) were used as the loading controls and detected using Donkey anti Mouse Alexa 680 antibody (LiCor Bioscience). Quantitation of data was performed using densitometry software (Licor Bioscience).
For RNA isolation, frozen tissues were re-suspended in RLT buffer (Qiagen Inc, Valencia, Calif.) and homogenized using TissueLyser system (Qiagen Inc, Valencia, Calif.). Total RNA from tissue homogenate was purified using RNAeasy mini kit (Qiagen Inc, Valencia, Calif.) following manufacturers instructions. 1 μg of RNA was used to synthesize cDNA using the iScript cDNA synthesis kit (Bio-Rad). The cDNA template was mixed with iTAQ SYBR green universal super mix (Bio-Rad) and quantitative PCR was carried out on CFX Connect system (Bio-Rad). Predesigned primers for Caspase-3 and Bcl-2 were purchased from Bio-rad. Glyceraldehyde-3-phosphate dehydrogenase (GAPDH) was amplified in parallel and used as the reference gene in quantification. Data is expressed as the relative gene expression and was calculated using the 2 (−ρρC(T)) method.
WT mice injected with hepcidin had higher levels of H-Ferritin and less apoptotic kidney injury. […]

For a further test, the system named is splenocytes from WT mice. Description: Iron stimulation of splenocytes, IL-6 secretion by ELISA. In kind it is cell-based. Conditions: 1 μg/mL hepcidin for 4 hours, vs untreated splenocytes; FIG. 10c. How it is done:
Splenocytes were harvested from 10-week-old B6 male mice. After excising the spleen, red blood cells were lysed and the remaining splenocytes were seeded at 1×10^6 cells/mL in 24-well tissue culture plates and cultured under 5% CO2 at 37° C. for 24 hours. The culture medium consisted of RPMI 1640 medium supplemented with 10% fetal calf serum (FCS), 100 U/mL penicillin, 100 μg/mL streptomycin, 1% non-essential amino acids (Gibco/Life Technologies, Foster, Calif., USA), 2 mM L-glutamine (Sigma), and 50/μM 2-mercaptoethanol. After resting for 24 hours, the cells were treated with 10 μM […] (FAC), 1 μg/mL hepcidin or saline for 4 hours. The cell culture supernatants were harvested and quantified for the levels of IL-6 by ELISA (eBioscience).

Consider “Mouse hepcidin 25 (DTNFPICIFCCKCCNNSQCGICCKT; listed as Mus musculus)”, for which, in the test on C57BL/6 mice [1], the “kidney 4-HNE immunoreactivity (oxidative stress)” value was “reduced the reactivity to 4 HNE; also recorded: markedly reduced”. Besides, the “kidney 4-HNE immunoreactivity (oxidative stress)” value with C57BL/6 mice [1] (listed as hepcidin) was “far less 4-HNE immunoreactivity”. The “protection against folic acid induced acute kidney injury” value in test [2] is “protective against folic acid induced acute kidney injury”. For the same substance, the “serum IL-6 levels” value in the test with C57BL/6 mice [3] (WT-IRI Vs WT Hepcidin-IRI, p<0.007, FIG. 10a) is recorded as “prevented IRI-induced increase in IL-6 levels; also recorded: prevented by Hepcidin”. For the same substance, the “splenic, renal, and systemic IL-6 levels” value in the test on C57BL/6 mice [3] (hepcidin treatment, renal IRI (discussion)) is “significantly prevented IRI-induced increase in splenic, renal, and systemic IL-6 levels”. Besides, in test [4] (HAMP-/- Hepcidin-IRI Vs HAMP-/- IRI, p<0.005, FIG. 7d), the “kidney Bcl-2 expression” value was “prevented the decrease in Bcl-2 expression; also recorded: higher level of anti apoptotic Bcl2”. For the same substance, in test [4], the “kidney Caspase-3 expression” value is “lower transcriptional activation of pro apoptotic Caspase3”, the “TUNEL-positive cells in the kidney” value is “markedly reduced” and the “kidney H-Ferritin levels” value is recorded as “significantly higher H ferritin levels”. In test [4] (listed as hepcidin), the “kidney Caspase-3 expression” value is “almost completely prevented”, the “TUNEL-positive cells in the kidney” value is “significantly fewer TUNEL-positive cells” and the “kidney H-Ferritin levels” value is reported as “significantly higher than in untreated”. For the same substance, the “IL-6 secretion into supernatants” value in the test with splenocytes from WT mice is “no significant difference in IL-6 levels”.
